Data published in article PMC7580725 (Drug Delivery, 2020).

How the values were obtained:
[1] = Water contact angle of compressed powder (wettability); assay type: physicochemical; conditions: pure water drop on compressed slice, Mean ± S.D., n = 3
Experimental: Powdered materials of different formulations were measured for angle of repose applying a BT 1000 powder analyzer (DanDong Better size Instruments, China). The wettability of the powders was evaluated using a contact angle analyzer (Dataphysics OCA-35, Filderstadt, Germany). Prior to measurement, 300 mg of powder was dried and then compressed into a slice with a diameter size of approximately 12 mm under a pressure of 10 MPa for one minute. […] The dynamic wetting angle was recorded using a video system at the speed of 6 frames/min.

[2] = Dissolution test under sink condition; assay type: physicochemical; conditions: deionized water with 0.3% (w/v) SDS, 900 mL, 37 °C, 100 rpm, 20 mg FNB
Experimental: The dissolution test under sink condition was conducted utilizing a ZRS-8G dissolution tester equipped with USP paddle apparatus (TDTF, Tianjin, China) at 37 °C and 100 rpm. […] Aliquot release medium (5 mL) was withdrawn at predetermined time intervals and an equal volume of fresh medium was added to compensate the sampling loss. The obtained samples were filtered through a 0.22 μm microporous membrane, and determined at 288 nm by UV spectrophotometry (TU-1901, Beijing, China).

CC(C)OC(=O)C(C)(C)Oc1ccc(C(=O)c2ccc(Cl)cc2)cc1 [FNB, Fenofibrate]
Contact angle [1]: 87.2 ± 0.4 °
drug release after 5 min [2]: 5.42%
